Source: ChEMBL document CHEMBL5335768, “Expanding the knowledge around antitubercular 5-(2-aminothiazol-4-yl)isoxazole-3-carboxamides: Hit-to-lead optimization and release of a novel antitubercular chemotype via scaffold derivatization” (Eur J Med Chem, 2023)

Legend:
[1] = tested on: Mycobacterium tuberculosis; assay: Antitubercular activity against STR/INH/RIF/EMB/ETH-resistant Mycobacterium tuberculosis IC1 assessed as inhibition of bacterial growth measured after 3 weeks by broth microdilution method; type: functional; conditions: IC1, 504 h
[2] = tested on: Mycobacterium tuberculosis; assay: microbe, parasite or virus in culture; conditions: IC2, 504 h

For `NNC(=O)c1ccncc1` [ISONIAZID], the MIC90 [1] was > 0.2 µg/mL and the MIC90 [2] was > 0.2 µg/mL.
